In ChEMBL document CHEMBL3991601, “The target landscape of clinical kinase drugs” (Science, 2017) one finds Kd data, which are given here for 13 compounds.

Structures are written as SMILES. Active and inactive are the calls of the source. Cut-off read from the data, not from the text of the source, for most assays here: actives have a measured Kd and inactives only a lower limit.

The target of assay [1] is T1, ATP-dependent 6-phosphofructokinase, platelet type (Homo sapiens, UniProt Q01813).
T1 sequence (Q01813 whole entry): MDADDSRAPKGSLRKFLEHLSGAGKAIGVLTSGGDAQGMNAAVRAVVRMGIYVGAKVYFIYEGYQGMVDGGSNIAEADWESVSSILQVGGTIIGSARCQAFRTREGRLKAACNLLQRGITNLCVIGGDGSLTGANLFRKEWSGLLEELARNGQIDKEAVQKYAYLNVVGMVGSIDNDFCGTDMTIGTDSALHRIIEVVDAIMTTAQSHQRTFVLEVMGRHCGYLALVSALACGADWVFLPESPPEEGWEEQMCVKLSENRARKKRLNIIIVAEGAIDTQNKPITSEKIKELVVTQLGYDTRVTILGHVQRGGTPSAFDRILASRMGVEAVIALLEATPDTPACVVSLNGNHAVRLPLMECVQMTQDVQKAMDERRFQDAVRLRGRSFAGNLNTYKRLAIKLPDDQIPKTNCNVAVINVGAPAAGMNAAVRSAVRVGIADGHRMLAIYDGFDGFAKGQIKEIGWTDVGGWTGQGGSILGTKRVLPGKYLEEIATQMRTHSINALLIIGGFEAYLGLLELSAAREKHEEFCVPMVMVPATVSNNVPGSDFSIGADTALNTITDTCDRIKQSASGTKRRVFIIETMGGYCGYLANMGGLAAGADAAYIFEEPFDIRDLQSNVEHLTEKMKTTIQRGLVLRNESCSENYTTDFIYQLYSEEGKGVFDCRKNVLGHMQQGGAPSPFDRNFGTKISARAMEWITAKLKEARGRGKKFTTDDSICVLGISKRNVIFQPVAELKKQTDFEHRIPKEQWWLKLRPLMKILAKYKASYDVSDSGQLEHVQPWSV

Assay [2] has as its target T2, Phosphorylase b kinase gamma catalytic chain, liver/testis isoform (Homo sapiens, UniProt P15735).
T2 sequence (P15735 whole entry): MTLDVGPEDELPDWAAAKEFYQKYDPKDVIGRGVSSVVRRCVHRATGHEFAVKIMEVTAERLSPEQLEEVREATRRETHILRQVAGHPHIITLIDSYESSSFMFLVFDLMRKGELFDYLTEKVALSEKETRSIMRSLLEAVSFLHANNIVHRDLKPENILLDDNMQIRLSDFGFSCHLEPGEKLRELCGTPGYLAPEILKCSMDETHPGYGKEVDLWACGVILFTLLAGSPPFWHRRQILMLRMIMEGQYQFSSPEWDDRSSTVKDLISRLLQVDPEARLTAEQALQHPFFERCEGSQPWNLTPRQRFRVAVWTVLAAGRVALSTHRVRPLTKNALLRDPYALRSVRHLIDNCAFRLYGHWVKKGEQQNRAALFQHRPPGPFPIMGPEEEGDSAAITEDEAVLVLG

Assay [3] deals with T3, ADP/ATP translocase 3 (Homo sapiens, UniProt P12236).
T3 sequence (P12236 whole entry): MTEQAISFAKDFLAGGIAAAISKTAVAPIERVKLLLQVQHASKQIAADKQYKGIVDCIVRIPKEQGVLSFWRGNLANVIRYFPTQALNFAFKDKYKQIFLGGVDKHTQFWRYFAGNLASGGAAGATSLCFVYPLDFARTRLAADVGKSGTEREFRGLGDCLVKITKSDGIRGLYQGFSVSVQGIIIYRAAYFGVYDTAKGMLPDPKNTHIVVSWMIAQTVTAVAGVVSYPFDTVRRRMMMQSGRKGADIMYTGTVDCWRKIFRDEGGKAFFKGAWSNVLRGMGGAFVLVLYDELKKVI

Assay [4] deals with Tyrosine-protein kinase Yes (Homo sapiens, UniProt P07947).
Assay [5] has as its target Cyclin-dependent kinase 12 (Homo sapiens, UniProt Q9NYV4).
Assay [6] deals with T4, Serine/threonine-protein kinase TAO3 (Homo sapiens, UniProt Q9H2K8).
T4 sequence (Q9H2K8 whole entry): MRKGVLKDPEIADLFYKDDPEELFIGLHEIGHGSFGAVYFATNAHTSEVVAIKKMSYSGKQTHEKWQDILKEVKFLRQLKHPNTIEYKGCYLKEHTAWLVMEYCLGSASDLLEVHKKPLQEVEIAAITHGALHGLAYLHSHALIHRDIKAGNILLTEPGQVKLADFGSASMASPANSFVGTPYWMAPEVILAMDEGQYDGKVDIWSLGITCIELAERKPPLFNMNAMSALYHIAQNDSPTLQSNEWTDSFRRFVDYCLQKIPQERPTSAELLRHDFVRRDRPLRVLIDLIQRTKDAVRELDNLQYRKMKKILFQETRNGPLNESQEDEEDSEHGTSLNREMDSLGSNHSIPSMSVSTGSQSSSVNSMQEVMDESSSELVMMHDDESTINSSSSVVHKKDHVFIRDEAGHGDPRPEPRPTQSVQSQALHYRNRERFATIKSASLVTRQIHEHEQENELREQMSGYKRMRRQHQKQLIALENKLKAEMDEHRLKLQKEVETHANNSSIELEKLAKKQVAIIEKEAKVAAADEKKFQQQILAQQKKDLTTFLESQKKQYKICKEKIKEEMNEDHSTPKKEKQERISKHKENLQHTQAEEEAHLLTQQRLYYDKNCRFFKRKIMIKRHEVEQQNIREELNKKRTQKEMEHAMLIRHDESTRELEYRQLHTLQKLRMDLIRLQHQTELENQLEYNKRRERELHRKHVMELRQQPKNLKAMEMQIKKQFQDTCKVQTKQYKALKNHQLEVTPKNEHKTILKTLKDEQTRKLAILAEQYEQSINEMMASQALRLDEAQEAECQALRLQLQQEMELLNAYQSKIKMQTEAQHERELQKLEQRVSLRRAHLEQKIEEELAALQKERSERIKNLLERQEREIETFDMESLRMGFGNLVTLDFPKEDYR

In assay [7] the target is T5, Aurora kinase A (Homo sapiens, UniProt O14965).
T5 sequence (O14965 whole entry): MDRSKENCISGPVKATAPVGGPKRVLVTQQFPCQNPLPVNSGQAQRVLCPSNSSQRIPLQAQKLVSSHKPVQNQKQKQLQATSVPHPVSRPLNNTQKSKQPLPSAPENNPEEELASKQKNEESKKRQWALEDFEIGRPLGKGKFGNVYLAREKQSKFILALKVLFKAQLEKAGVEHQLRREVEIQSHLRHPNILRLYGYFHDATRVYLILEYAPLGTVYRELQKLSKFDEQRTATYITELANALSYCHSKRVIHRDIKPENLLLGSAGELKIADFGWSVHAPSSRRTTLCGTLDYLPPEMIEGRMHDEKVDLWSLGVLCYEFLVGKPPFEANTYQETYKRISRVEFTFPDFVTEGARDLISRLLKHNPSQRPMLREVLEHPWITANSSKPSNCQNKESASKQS

The target in assay [8] is Cyclin-dependent kinase 1 (Homo sapiens, UniProt P06493).
Note: in the data inactive means no Kd found up to 30 µM.

Cyclin-dependent kinase 12, sequence (Q9NYV4 whole entry): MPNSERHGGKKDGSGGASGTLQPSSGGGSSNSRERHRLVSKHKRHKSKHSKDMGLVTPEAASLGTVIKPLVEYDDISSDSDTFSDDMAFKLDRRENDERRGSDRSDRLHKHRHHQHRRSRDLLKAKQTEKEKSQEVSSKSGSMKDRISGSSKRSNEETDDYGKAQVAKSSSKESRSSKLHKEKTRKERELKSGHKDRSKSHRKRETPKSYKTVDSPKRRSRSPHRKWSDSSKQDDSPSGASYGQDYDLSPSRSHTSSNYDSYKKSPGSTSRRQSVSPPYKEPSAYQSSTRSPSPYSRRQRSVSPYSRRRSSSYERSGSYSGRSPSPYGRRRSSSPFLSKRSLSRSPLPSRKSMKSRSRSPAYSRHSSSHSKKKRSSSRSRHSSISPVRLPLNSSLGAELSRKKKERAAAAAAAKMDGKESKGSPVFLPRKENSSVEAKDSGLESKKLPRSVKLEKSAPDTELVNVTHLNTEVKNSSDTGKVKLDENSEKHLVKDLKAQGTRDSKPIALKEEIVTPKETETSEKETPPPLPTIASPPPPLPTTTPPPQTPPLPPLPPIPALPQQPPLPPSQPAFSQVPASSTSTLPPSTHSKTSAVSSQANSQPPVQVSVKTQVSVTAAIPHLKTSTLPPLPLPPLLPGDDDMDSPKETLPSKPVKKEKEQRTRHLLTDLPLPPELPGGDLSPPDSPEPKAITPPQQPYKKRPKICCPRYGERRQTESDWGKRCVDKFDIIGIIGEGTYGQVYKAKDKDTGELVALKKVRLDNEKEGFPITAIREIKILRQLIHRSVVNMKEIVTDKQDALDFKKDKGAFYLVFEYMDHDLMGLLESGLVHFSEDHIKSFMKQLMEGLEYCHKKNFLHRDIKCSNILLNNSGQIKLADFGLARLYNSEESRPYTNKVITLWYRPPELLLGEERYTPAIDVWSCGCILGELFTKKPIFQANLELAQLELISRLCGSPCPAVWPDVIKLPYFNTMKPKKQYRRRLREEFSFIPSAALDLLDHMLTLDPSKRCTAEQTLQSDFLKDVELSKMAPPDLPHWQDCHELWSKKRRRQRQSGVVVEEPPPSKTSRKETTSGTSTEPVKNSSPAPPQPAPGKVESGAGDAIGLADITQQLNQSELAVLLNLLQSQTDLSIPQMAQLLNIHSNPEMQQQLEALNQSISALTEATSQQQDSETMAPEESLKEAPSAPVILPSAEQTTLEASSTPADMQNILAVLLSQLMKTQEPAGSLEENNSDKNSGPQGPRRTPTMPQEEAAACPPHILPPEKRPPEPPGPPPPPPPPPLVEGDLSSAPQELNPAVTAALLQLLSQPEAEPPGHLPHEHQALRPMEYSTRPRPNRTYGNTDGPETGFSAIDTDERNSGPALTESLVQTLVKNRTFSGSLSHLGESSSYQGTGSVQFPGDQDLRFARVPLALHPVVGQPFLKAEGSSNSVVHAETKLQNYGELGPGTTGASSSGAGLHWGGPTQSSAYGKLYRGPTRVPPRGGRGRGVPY
Tyrosine-protein kinase Yes, sequence (P07947 whole entry): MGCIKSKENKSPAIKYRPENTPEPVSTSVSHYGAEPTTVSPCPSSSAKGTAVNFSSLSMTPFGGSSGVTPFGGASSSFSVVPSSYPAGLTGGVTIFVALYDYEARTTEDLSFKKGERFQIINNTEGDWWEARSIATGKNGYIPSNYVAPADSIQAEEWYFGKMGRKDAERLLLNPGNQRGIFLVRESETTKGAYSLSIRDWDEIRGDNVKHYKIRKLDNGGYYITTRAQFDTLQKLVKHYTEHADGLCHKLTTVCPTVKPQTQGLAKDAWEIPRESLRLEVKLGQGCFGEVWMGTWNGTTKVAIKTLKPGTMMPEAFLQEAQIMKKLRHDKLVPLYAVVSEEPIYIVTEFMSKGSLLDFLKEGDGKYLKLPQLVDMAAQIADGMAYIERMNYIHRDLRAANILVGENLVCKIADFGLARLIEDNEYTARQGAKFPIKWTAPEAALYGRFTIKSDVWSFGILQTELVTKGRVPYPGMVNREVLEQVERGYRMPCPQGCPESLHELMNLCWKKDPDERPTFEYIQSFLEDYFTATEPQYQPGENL
Cyclin-dependent kinase 1, sequence (P06493 whole entry): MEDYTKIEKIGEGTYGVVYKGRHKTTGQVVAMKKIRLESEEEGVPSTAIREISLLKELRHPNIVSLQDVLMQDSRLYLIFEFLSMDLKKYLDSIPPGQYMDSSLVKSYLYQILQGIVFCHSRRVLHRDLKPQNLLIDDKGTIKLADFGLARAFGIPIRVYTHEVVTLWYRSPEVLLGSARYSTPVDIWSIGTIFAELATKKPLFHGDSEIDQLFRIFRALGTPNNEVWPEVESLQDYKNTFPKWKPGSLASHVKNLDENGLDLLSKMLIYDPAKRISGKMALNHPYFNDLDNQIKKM

One may read the Kd as the equilibrium constant for the complex coming apart. For `O=C(O)c1ccc2c(c1)nc(Nc1cccc(Cl)c1)c1ccncc12` [SILMITASERTIB], the Kd is > 30 µM (inactive) in assay [1]; 3.5 µM (active) in assay [2]; > 30 µM (inactive) in assay [3]; > 30 µM (inactive) in assay [4]; > 30 µM (inactive) in assay [5]; > 30 µM (inactive) in assay [6]. Also, in assay [7], the Kd was > 30 µM (inactive).
For the compound `O=C(Nc1ccc(OC(F)(F)F)cc1)c1sccc1NCc1ccnc2ccccc12` [OSI-930], the Kd in assay [2], in assay [3], in assay [4], in assay [5], in assay [6] and in assay [7] was > 30 µM (inactive) each time. Further, the Kd in assay [8] is > 30 µM (inactive).
`N#CCNC(=O)c1ccc(-c2ccnc(Nc3ccc(N4CCOCC4)cc3)n2)cc1` [MOMELOTINIB]: the Kd in assay [1], in assay [2], in assay [3], in assay [4], in assay [5] and in assay [7] was > 30 µM (inactive) each time. The Kd in assay [8] was > 30 µM (inactive).
Consider `C=CCN(/C=C1/C(=O)O[C@H](COC)[C@@]2(C)C1=C(O)C(=O)C1=C2[C@H](OC(C)=O)C[C@]2(C)C(=O)CC[C@@H]12)CC=C` [SONOLISIB], for which the Kd in assay [2], in assay [3], in assay [4], in assay [5], in assay [6] and in assay [7] was > 30 µM (inactive) each time. Moreover, in assay [8], the Kd was > 30 µM (inactive).
Regarding `Cn1c(=O)c(F)c(Nc2ccc(I)cc2F)c2c(=O)n(C[C@@H](O)CO)cnc21` [TAK-733], the Kd in assay [2], in assay [3], in assay [4], in assay [5], in assay [6] and in assay [7] was > 30 µM (inactive) each time. Besides, the Kd in assay [8] is > 30 µM (inactive).
Consider `FC(F)(F)c1ccc(CNc2ccc(Cc3c[nH]c4ncc(Cl)cc34)cn2)cn1` [PEXIDARTINIB], for which the Kd in assay [2], in assay [3], in assay [4], in assay [5], in assay [6] and in assay [7] was > 30 µM (inactive) each time. For the same compound, the Kd in assay [8] was > 30 µM (inactive).
For `CC(C)(O)CC(=O)NCCn1ccc2ncnc(Nc3ccc(Oc4cccc(C(F)(F)F)c4)c(Cl)c3)c21` [TAK-285], the Kd in assay [1], in assay [2], in assay [3], in assay [5], in assay [6] and in assay [7] was > 30 µM (inactive) in each case. Also, the Kd in assay [8] was > 30 µM (inactive).
Take `Cc1cc(C(=O)Nc2cc(Oc3ccc4nc(NC(=O)C5CC5)cn4n3)ccc2C)n(C)n1` [TAK-593]: the Kd in assay [1], in assay [2], in assay [3], in assay [5], in assay [6] and in assay [7] was > 30 µM (inactive) throughout. Further, the Kd in assay [8] was > 30 µM (inactive).
With `CCc1nc(C(N)=O)c(Nc2ccc(N3CCC(N4CCN(C)CC4)CC3)c(OC)c2)nc1NC1CCOCC1` [GILTERITINIB], the Kd in assay [1] was > 30 µM (inactive); in assay [3] it was 0.495 µM; in assay [5], > 30 µM (inactive); in assay [6] it was > 30 µM (inactive); in assay [7], 0.184 µM; in assay [8] it was > 30 µM (inactive).
On to `Cc1cc(-c2cc(OC(=O)c3ccccc3)ccc2Cl)cc2nnc(Nc3ccc(OCCN4CCCC4)cc3)nc12` [TG100-801], for which the Kd in assay [2] is > 30 µM (inactive); in assay [3] it was > 30 µM (inactive); in assay [4], 4.43 µM (active); in assay [5], > 30 µM (inactive); in assay [6] it was > 30 µM (inactive); in assay [7] it was > 30 µM (inactive). For the same compound, the Kd in assay [8] was > 30 µM (inactive).
Consider `Cc1cc(Nc2nc(N[C@@H](C)c3ncc(F)cn3)ncc2Cl)n[nH]1` [AZD-1480], for which the Kd in assay [1], in assay [2], in assay [3], in assay [4], in assay [5] and in assay [6] was > 30 µM (inactive) each time. The Kd in assay [8] was > 30 µM (inactive).
As for `CC(C)CC(=O)Nc1[nH]nc2c1CN(C(=O)C1CCN(C)CC1)C2(C)C` [PHA-793887], the Kd is > 30 µM (inactive) in assay [1]; 1 µM (active) in assay [2]; > 30 µM (inactive) in assay [3]; > 30 µM (inactive) in assay [4]; 3.66 µM (active) in assay [5]; > 30 µM (inactive) in assay [7]. Moreover, in assay [8], the Kd is 2.56 µM (active).
For the compound `COc1ccc2c(OCc3nnc4ccc(-c5ccccc5)nn34)ccnc2c1` [AMG-208], the Kd in assay [2], in assay [3], in assay [4], in assay [5], in assay [6] and in assay [7] was > 30 µM (inactive) throughout. Besides, the Kd in assay [8] was > 30 µM (inactive).
